Measured values taken from ChEMBL document CHEMBL4420072, “Method for screening anti-cancer compounds inhibiting function of TM4SF5 and anti-cancer composition containing chalcone compounds” (2013).
Values after ≈ are worked out from the molar mass of the structure shown. Active and inactive are the calls of the source. The rule behind the calls is not given here.

Legend:
[1] = molecular target: T1, Transmembrane 4 L6 family member 5 (Homo sapiens) (UniProt O14894); test: Activation of TM4SF5 in human SNU449Tp cells in monolayer arrangement assessed as effect on cell morphology at 20 uM incubated for 24 hrs by optical microscopy; assay type: cell-based
T1 sequence (whole entry): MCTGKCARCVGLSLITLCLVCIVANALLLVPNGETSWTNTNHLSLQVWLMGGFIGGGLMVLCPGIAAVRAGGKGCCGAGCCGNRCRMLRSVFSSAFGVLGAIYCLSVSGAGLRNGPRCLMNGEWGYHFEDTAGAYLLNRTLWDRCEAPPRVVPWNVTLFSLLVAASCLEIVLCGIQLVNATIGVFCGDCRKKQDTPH

[2] = molecular target: T1, Transmembrane 4 L6 family member 5 (Homo sapiens); test: Activation of TM4SF5 in human SNU449Tp cells in monolayer arrangement assessed as stimulation of cell growth at 20 uM incubated for 24 hrs by optical microscopy; assay type: cell-based
[3] = molecular target: T1, Transmembrane 4 L6 family member 5 (Homo sapiens); test: Activation of TM4SF5 in human SNU449Tp cells in multilayer arrangement assessed as stimulation of cell growth at 20 uM incubated for 24 hrs by optical microscopy; assay type: cell-based
[4] = molecular target: T1, Transmembrane 4 L6 family member 5 (Homo sapiens); test: Inhibition of TM4SF5 in human SNU449Tp cells assessed as effect on cell morphology at 20 uM incubated for 24 hrs by optical microscopy; assay type: cell-based
A549 = test: Cytotoxicity against human A549 cells assessed as reduction in cell viability by SRB assay; assay type: functional; details: read-out: ED50 (the source's name)
HCT-15 = test: Cytotoxicity against human HCT15 cells assessed as reduction in cell viability by SRB assay; assay type: functional; details: read-out: ED50 (the source's name)
PC-3 = test: Cytotoxicity against human PC3 cells assessed as reduction in cell viability by SRB assay; assay type: functional; details: read-out: ED50 (the source's name)
[5] = molecular target: T1, Transmembrane 4 L6 family member 5 (Homo sapiens); test: Inhibition of TM4SF5 in human SNU449Tp cells assessed as reduction in p27Kip1 expression by Western blotting analysis; assay type: cell-based
[6] = molecular target: T1, Transmembrane 4 L6 family member 5 (Homo sapiens); test: Inhibition of TM4SF5 in human SNU449Tp cells assessed as reduction in MMP9 activity gel at 20 uM incubated for 24 hrs followed by medium exchange with serum-free medium and further incubated for 18 hrs by zymography; assay type: cell-based
[7] = molecular target: T1, Transmembrane 4 L6 family member 5 (Homo sapiens); test: Inhibition of TM4SF5 in human SNU449Tp cells assessed as restoration of cell-cell contact at 20 uM by E-cadherin and beta-catenin detection based immunofluorescent staining
[8] = molecular target: T1, Transmembrane 4 L6 family member 5 (Homo sapiens); test: Inhibition of TM4SF5 in human SNU449Tp cells assessed as restoration of reduced RhoA activity; assay type: cell-based
[9] = molecular target: T1, Transmembrane 4 L6 family member 5 (Homo sapiens); test: Inhibition of TM4SF5 in human HuH7 cells assessed as reduction in cell number at 1 to 20 ug/ml incubated up to 3 days; assay type: cell-based
[10] = molecular target: T1, Transmembrane 4 L6 family member 5 (Homo sapiens); test: Inhibition of TM4SF5 in human SNU368 cells assessed as reduction in cell number at 1 to 20 ug/ml incubated up to 3 days; assay type: cell-based
[11] = molecular target: T1, Transmembrane 4 L6 family member 5 (Homo sapiens); test: Inhibition of TM4SF5 in human SNU449Tp cells assessed as reduction in pS10 p27Kip1 expression by Western blotting analysis; assay type: cell-based
[12] = molecular target: T1, Transmembrane 4 L6 family member 5 (Homo sapiens); test: Inhibition of TM4SF5 in human SNU449Tp cells assessed as increase in sensitivity of N-linked glycosylated region of TM4SF5 to PNGase F; assay type: cell-based
[13] = molecular target: T1, Transmembrane 4 L6 family member 5 (Homo sapiens); test: Inhibition of TM4SF5 in human SNU449Tp cells assessed as reduction in pY77 FAK expression by Western blotting analysis; assay type: cell-based
[14] = molecular target: T1, Transmembrane 4 L6 family member 5 (Homo sapiens); test: Inhibition of TM4SF5 in human SNU449Tp cells assessed as reduction in cell invasion into Matrigel gel matrix at 20 uM incubated for 24 hrs; assay type: cell-based
[15] = molecular target: T1, Transmembrane 4 L6 family member 5 (Homo sapiens); test: Inhibition of TM4SF5 in human SNU449Tp cells assessed as reduction in cell invasion into collagen gel matrix at 20 uM incubated for 18 hrs; assay type: cell-based
[16] = molecular target: T1, Transmembrane 4 L6 family member 5 (Homo sapiens); test: Inhibition of TM4SF5 in human SNU449Tp cells assessed as reduction in alpha-SMA expression by Western blotting analysis; assay type: cell-based
[17] = molecular target: T1, Transmembrane 4 L6 family member 5 (Homo sapiens); test: Inhibition of TM4SF5 in human SNU449Tp cells assessed as reduction in cell migration at 20 uM incubated for 18 hrs by Transwell chamber based assay
[18] = molecular target: T1, Transmembrane 4 L6 family member 5 (Homo sapiens); test: Inhibition of TM4SF5 in human SNU449Tp cells assessed as inhibition of S-phase progression at 20 uM followed by BrdU addition and incubated for 24 hrs by immunofluorescent staining; assay type: cell-based
[19] = molecular target: T1, Transmembrane 4 L6 family member 5 (Homo sapiens); test: Inhibition of TM4SF5 in human HepG2 cells assessed as reduction in cell number at 1 to 20 ug/ml incubated up to 3 days; assay type: cell-based
SNU-398 = test: Growth inhibition of TM4SF5 deficient human SNU398 cells assessed as reduction in cell number at 1 to 20 ug/ml incubated up to 3 days; assay type: cell-based; details: snu-398, 72 h
[20] = molecular target: T1, Transmembrane 4 L6 family member 5 (Homo sapiens); test: Inhibition of TM4SF5 in human SNU449Tp cells assessed as induction of return of elongated cell shape to polygonal shape by DAPI staining based assay
[21] = molecular target: T1, Transmembrane 4 L6 family member 5 (Homo sapiens); test: Inhibition of TM4SF5 in human SNU449Tp cells assessed as reduction in cytosolic p27Kip1 expression by immunofluorescent staining; assay type: cell-based
[22] = Growth inhibition of TM4SF5 deficient human SNU449Cp cells assessed as reduction in cell number at 5 to 40 uM incubated up to 2 days; details: 48 h
[23] = molecular target: T1, Transmembrane 4 L6 family member 5 (Homo sapiens); test: Inhibition of TM4SF5 in human SNU449Tp cells assessed as reduction in MMP2 activity gel at 20 uM incubated for 24 hrs followed by medium exchange with serum-free medium and further incubated for 18 hrs by zymography; assay type: cell-based

## COc1ccc(C(=O)/C=C/c2ccc(O)cc2)cc1
[1]
  Activity: Active
[2]
  Activity: Active
[3]
  Activity: inactive
[4]
  cell morphology effect (active/not active): inactive

## Cc1ccc(S(=O)(=O)Oc2ccc(C(=O)/C=C/c3ccc(O)cc3O)cc2)cc1
A549
  EC50: 10 µg/mL (≈ 24.4 µM)
HCT-15
  EC50: 8 µg/mL (≈ 19.5 µM)

## O=C(/C=C/c1ccc(O)c(O)c1)c1ccc(OS(=O)(=O)c2cccc(F)c2)cc1
PC-3
  EC50: 8 µg/mL (≈ 19.3 µM)
HCT-15
  EC50: 7 µg/mL (≈ 16.9 µM)

## Cc1ccc(S(=O)(=O)Nc2ccc(C(=O)/C=C/c3ccc(O)cc3)cc2)cc1
[5]
  inhibition: Active
[6]
  inhibition: Active
[7]
  inhibition: Active
[8]
  inhibition: Active
[9]
  inhibition: Active
[10]
  inhibition: Active
[11]
  inhibition: Active
[12]
  inhibition: Active
[13]
  inhibition: Active
[14]
  inhibition: Active
[15]
  inhibition: Active
[16]
  inhibition: Active
[17]
  inhibition: Active
[18]
  inhibition: Active
[19]
  inhibition: Active
SNU-398
  growth inhibition (GI): Non-Toxic
[4]
  cell morphology effect (active/not active): Active
[20]
  inhibition: Active
[21]
  inhibition: Active
[22]
  growth inhibition (GI): Non-Toxic
[23]
  inhibition: Active

## Nc1ccc(C(=O)/C=C/c2ccc(O)cc2)cc1
[1]
  Activity: Active
[2]
  Activity: Active
[3]
  Activity: inactive
[4]
  cell morphology effect (active/not active): inactive

## O=C(/C=C/c1ccc(O)cc1)c1ccc(O)cc1
[1]
  Activity: Active
[2]
  Activity: Active
[3]
  Activity: inactive
[4]
  cell morphology effect (active/not active): inactive
